Data set [1] has as its system leukotriene E induced bronchoconstriction. The data set is described as follows: Guinea pig bronchoconstriction, in vivo (aerosol). As to conditions: aerosol at concentration inhibiting bronchoconstriction by 80%. Details: species or system guinea pig (Hartly strain). Here is the method:
(c) Guinea Pig Bronchoconstriction, In Vivo (Aerosol):
Male guinea pigs (Hartly strain) weighing 300 to 500 g are anesthetized with urethane (2 g/kg) intraperitoneally and a polyethylene cannula is inserted into the jugular vein for drug administration. Tracheal pressure is recorded from a cannula inserted in the trachea and connected to a Statham pressure transducer. After surgical preparation of the animals, a period of time is allowed for pulmonary functions to stabilize. The test compound is administered according to the following protocol. Propranolol (0.1 mg/kg) is administered intravenously while the animals breathed spontaneously. Five minutes thereafter, the animals are exposed for a five minute period to a 1% (w/v) aerosol solution of test compound (adjusted to an alkaline pH where necessary for drug solubilization) or to distilled water of the appropriate pH (for control purposes). A Monaghan (Model 750) ultrasonic nebulizer is used to administer all test compounds by inhalation. The nebulizer ultrasonic frequency is adjusted to produce particles in the 1-8μ diameter range (average 3μ). Aqueous solutions are prepared fresh and introduced into the chamber of the nebulizer. The output of the nebulizer is made available to the animal by directing a bias flow of aerosol through a y tube connected to the tracheal cannula. At the end of the exposure period, the animals are paralyzed with succinylcholine (1.2 mg/kg, i.v.) and mechanically respirated (Harvard rodent respirator) at 40 breaths/minute and 2.5 cc tidal volume. Animals are then challenged with a maximum constrictory dose of leukotriene E delivered intravenously 30 seconds after administration of the succinylcholine.
The change (cm H2 O) between pre and peak ventilatory pressure readings is averaged for three control animals and five drug treated animals. The percent inhibition is calculated from the following formula:
(Control-Drug Tested/Control)×100
When various drug concentrations are tested, the percent inhibition at each concentration is plotted as log concentration (abscissa) versus percent inhibition (ordinate) and the IC50 is determined from linear regression analysis.
In order to determine the aerosol half-life (t 1/2), the animals are prepared as described above, except that the time between aerosol exposure and challenge with leukotriene E is varied. All compounds are administered at the concentration necessary to inhibit leukotriene-induced bronchoconstriction by 80%. Biological half-life is calculated from plots of time (abscissa) versus log percent inhibition (ordinate).

Data set [2] relates to arachidonic acid induced platelet aggregation. The experiment in a line: Arachidonic acid induced platelet aggregation in vitro. It counts as cell-based. As to conditions: read-out: AA (IC50, arachidonic acid induced platelet aggregation). The method, then: (§1) (1) Assay for Platelet Aggregation In Vitro
(§2) The turbidometric method of G. V. R. Born, Nature 194, 927 (1962) is used. Platelet rich plasma (PRP) and platelet poor plasma (PPP) are prepared with 0.38% sodium citrate-treated blood. Speed and time of centrifugation varied with different species; human:160 g for 20 minutes, dog:160 g for 15 minutes, guinea pig and rabbit:160 g for 15 minutes, and rat:230 g for 10 minutes. Aggregation is monitored with a Payton dual channel module or Chronolog lumiaggregometer when the release of ATP is simultaneously measured. 0.45 ml of PRP is added to a cuvette and prewarmed to 37° C. The stimulant (arachidonic acid or synthetic platelet activating factor) is added in volumes of 50 μl; all other agents in 5 μl. Vehicles are added to samples not containing agents. 0 to 100% light transmission is set with PRP and PPP. % aggregation is calculated from the % increase in light transmission at 5 minutes after the addition of the aggregating agent. For inhibition of aggregation studies the inhibitor is added first and preincubated with the platelets for 1 minute with stirring, followed by the stimulant. % inhibition is calculated from the % aggregation with and without the test compound. [formula]

The subject of data set [3] is platelet activating factor induced platelet aggregation. The experiment in a line: Platelet activating factor induced platelet aggregation in vitro. It counts as cell-based. The note with it: racemic platelet activating factor; read-out: PAF (IC50, platelet activating factor induced platelet aggregation). Here is the method:
as §1, §2

The nature of data set [4]: LD50 in mice (acute toxicity). As to conditions: mouse, in vivo, po, orally.
Data set [5] relates to leukotriene E (LTE) induced skin wheal formation in rat skin. The experiment in a line: LTE-induced skin wheal formation in rat. As to conditions: for ED50: rat skin wheal, read-out: ID50 (the source's name). It counts as in vivo. The method, then: (a) Methodology for LTE-induced Skin Wheal Formation in Rat. The ability of a drug to inhibit leukotriene E (LTE) induced skin wheal formation in rat skin is measured. In this model system a dose of LTE which gives a maximal wheal response, is injected (in 0.05 ml of saline) intradermally into anesthetized rats which have been pretreated for 30 minutes with 50 mg/kg of pyrilamine maleate and 4 mg/kg of methyl […] maleate (both administered intraperitoneally). The animal is then immediately treated with test drug (at 10 mg/kg, i.v.) followed by an intravenous injection of Evans blue (0.5%) into the tail vein of the animal. Thirty minutes later the animals are sacrificed and the increase in capillary permeability induced by LTE is reflected by the migration of dye into the injection point in the skin (the response being quantitated by the size, in mm, of the dye spot in the skin). The average response in 5 animals (4 intradermal injections of LTE per animal) treated with the test compound is compared with the response elicited in a similar group of animals which were not treated with the drug. For oral studies, the test animals are pretreated two hours prior to intradermal injection of LTE.

For data set [6], the system named is leukotriene E induced bronchoconstriction. The data set is described as follows: LTE-induced bronchoconstriction in guinea pigs, in vivo (i.v. / oral). Also on record: species or system guinea pig (Hartley strain). As to conditions: for ED50: read-out: ID50 (the source's name).
Data set [7] relates to SRS-A induced contraction of guinea pig ileum. The experiment in a line: In vitro SRS-A antagonism. As to conditions: 30 seconds pretreatment. Here is the method:
(j) In vitro SRS-A Antagonism
SRS-A was determined by bioassay on the guinea pig ileum using a modification of the method described by Orange et al., Adv. Immunol., 1969, 10, 105. A 1.5 cm segment of the ileum, obtained from male guinea pigs (175-200 g), was suspended in an organ bath containing Tyrodes solution with 10^-6 M atropine sulfate and 10^-6 M pyrilamine maleate. The bath was maintained at 37° C. and gassed with a mixture of 95 percent oxygen and 5 percent carbon dioxide. The ileum was attached to a strain gauge transducer and isotonic contractions recorded by a strip chart recorder. A resting tension of 0.5 g was applied and the tissue allowed to equilibrate for 1 hour.
The SRS-A used in these studies was obtained by challenging a large quantity of chopped lung fragments from actively sensitized guinea pigs with egg albumin in vitro. The animals were sensitized to egg albumin by an intraperitoneal injection of the antigen (1 ml of 10 mg/ml) in saline 28 to 45 days prior to challenge. The in vitro challenge was carried out by first preincubating the lung tissue (40 mg/ml) at 37° C. in Tyrodes solution for 5 minutes, adding the egg albumin ([…] final concentration) to the fragments and after a 10 minute challenge, separating the media containing the SRS-A from the lung tissue by filtration on Whatman #1 filter paper. The concentration of SRS-A in the filtrate was calibrated by comparison of the contraction amplitude elicited in the bioassay system by a given volume of the supernatant with contractions obtained by varying concentrations of histamine. One unit of SRS-A is equivalent to that quantity which will give the same contraction as 5 ng of histamine. After standarization, the SRS-A was stored in small aliquots at -80° C. for further use. […] SRS-A antagonism was determined by pretreating the ileum with drug for 30 seconds prior to the addition of a concentration of SRS-A which have a submaximal response, determination of the amplitude of contraction elicited in the presence of drug and then washing the ileum with Tyrodes. […]

Data set [8] deals with histamine-induced constriction in guinea pig ilea. The experiment in a line: Antagonism of histamine-induced constriction in guinea pig ilea. The note with it: 1×10^-7 M histamine. The method, then:
(f) Antagonism of Histamine-induced Constriction in Guinea Pig Ilea
Antihistaminic activity was determined on a segment of guinea pig ileum that was suspended in a 37° C. bath of oxygenated Tyrodes solution. At 4 minute intervals, the ileum was challenged with 1×10^-7 M histamine for sufficient time to produce a peak contraction and then washed with fresh Tyrodes solution. After the tissue response to histamine had stabilized, the ileum was pretreated with the standard antihistaminic compound, pyrilamine maleate, for 1 minute prior to rechallenge with histamine, the contraction recorded, and the tissue washed with Tyrodes solution. […] By the IC50 for pyrilamine maleate in the test system was 1×10^-8 M. IC50 's for test drugs were determined by this same procedure.

In data set [9] the test system is acetylcholine-induced constriction in guinea pig ilea. The data set is described as follows: Antagonism of acetylcholine-induced constriction in guinea pig ilea. The note with it: 5.0×10^-7 M acetylcholine; read-out: IC50 antagonism of acetylcholine-induced constrictions. The method, then: (e) Antagonism of Acetylcholine-induced Constriction in Guinea Pig Ilea
Anticholinergic activity was determined on a segment of guinea pig ileum that was suspended in a 37° C. bath of oxygenated Tyrodes solution. At 4 minute intervals, the ileum was challenged with 5.0×10^-7 M acetylcholine for sufficient time to produce a peak contraction and then washed with fresh Tyrodes solution. After the tissue response to acetylcholine had stablized, the ileum was pretreated with the standard anticholinergic, atropine sulfate, for 1 minute prior to rechallenge with acetylcholine, the contraction recorded and the tissue washed with Tyrodes solution. […] The IC50 for atropine was 1×10^-8 M. THe IC50 's for test drugs were determined by this same procedure.

Where a name gives a salt, the structure may show the parent alone. Read-outs that look alike come from different tables or passages of the source.

In turn, `CC(C)NCC(O)c1ccc(O)c(O)c1` (stereo not shown) [Isoproterenol] came in with a Biological half-life in data set [1] of 19.4 min.
Regarding `CC(C)c1ccc2nc3ccc(C(=O)NCCCCCn4ccnc4)cn3c(=O)c2c1` [Example 16, N-[5-(1H-Imidazol-1-yl)pentyl]-2-(1-methylethyl)-11-oxo-11H-pyrido[2,1-b]quinazoline-8-carboxamide], the 50% inhibitory concentration (IC50) in data set [2] was less than 10 µM; in data set [3], greater than 10 µM.
As to `CC(C)c1ccc2nc3ccc(C(=O)NCCCCc4ccncc4)cn3c(=O)c2c1` [2-(1-methylethyl)-N-[4-(4-pyridyl)butyl]-11-oxo-11H-pyrido[2,1-b]quinazoline-8-carboxamide], the figures for the IC50 in data set [2] and in [3] were greater than 10 µM and less than 10 µM, respectively. Besides, the median lethal dose (LD50) in data set [4] is greater than 1000 mg/kg. For the same compound, the ED50 amounted to 10 mg/kg in data set [5] (iv); 90 mg/kg in data set [5] (po); 1.9 mg/kg in [6] (Cavia porcellus, iv); 57 mg/kg in data set [6] (Cavia porcellus, po, orally (2 hours pretreatment)).
As to `CC(C)c1ccc2nc3ccc(C(=O)OCCCc4cccnc4)cn3c(=O)c2c1` [Example 1, 2-(1-methylethyl)-11-oxo-11H-pyrido[2,1-b]quinazoline-8-carboxylic acid 3-(3-pyridyl)propyl ester], the IC50 is greater than 10 µM in data set [2] and less than 10 µM in [3].
For `CCCc1c(OCC(O)COc2ccc3c(=O)cc(C(=O)O)oc3c2CCC)ccc(C(C)=O)c1O` (stereo not shown) [FPL 55712, 7-[3-(4-Acetyl-3-hydroxy-2-propylphenoxy)-2-hydroxypropoxy]-4-oxo-8-propyl-4H-1-benzopyran-2-carboxylic acid, reference compound], the Biological half-life in data set [1] was 77 min. Also, the inhibition at 10 mg/kg in data set [5] (Rattus norvegicus, iv, 10 mg/kg) was found to be 88%; in data set [6] (Cavia porcellus, iv, 10 mg/kg), 98%. In addition, in [5] (orally), the “oral activity, LTE-induced skin wheal” value is “inactive orally”. Further, in data set [6] (orally), the “oral activity, LTE-induced bronchoconstriction” value was “orally inactive”. For the same compound, the IC50 in [7] was determined as 0.03 µM.
Turning to `CC(C)Oc1ccc2nc3ccc(C(=O)NCCCCc4cccnc4)cn3c(=O)c2c1` [Example 19, 2-(1-Methylethoxy)-N-[4-(3-pyridyl)butyl]-11-oxo-11H-pyrido[2,1-b]quinazoline-8-carboxamide], the half-maximal inhibitory concentration (IC50) in data set [2] and in data set [3] was less than 10 µM each time.
Consider `CCCCC[C@H](O)/C=C/[C@H]1[C@H](O)CC(=O)[C@@H]1C/C=C\CCCC(=O)O` [PGE2], for which the Biological half-life in data set [1] was 2.1 min.
For `Cc1ccc2nc3ccc(C(=O)NCCCCc4cccnc4)cn3c(=O)c2c1` [Example 17, 2-Methyl-N-[4-(3-pyridyl)butyl]-11-oxo-11H-pyrido[2,1-b]quinazoline-8-carboxamide], the 50% inhibitory concentration (IC50) in data set [2] was less than 10 µM; in data set [3], greater than 10 µM.
For `O=C(NCCCCc1cccnc1)c1ccc2nc3ccc(O)cc3c(=O)n2c1` [Example 22, 2-Hydroxy-N-[4-(3-pyridyl)butyl]-11-oxo-11H-pyrido[2,1-b]quinazoline-8-carboxamide], the IC50 in data set [2] and in data set [3] was less than 10 µM in each case.
`CC(C)c1ccc2nc3ccc(C(=O)NCCSc4ccncc4)cn3c(=O)c2c1` [Example 12, N-[2-(4-Pyridylthio)ethyl]-2-(1-methylethyl)-11-oxo-11H-pyrido[2,1-b]quinazoline-8-carboxamide]: the IC50 in [2] and in data set [3] was less than 10 µM in each case.
In the case of `COc1ccc(CN(CCN(C)C)c2ccccn2)cc1` [pyrilamine maleate, reference compound], half-maximal inhibition in [8] (IC50) was put at 0.01 µM.
With `CN1[C@@H]2CC[C@H]1CC(OC(=O)C(CO)c1ccccc1)C2` (stereo partly shown) [atropine, atropine sulfate, reference compound], the half-inhibitory concentration (IC50) in [9] was 0.01 µM.
In the case of `CC(C)c1ccc2nc3ccc(C(=O)NCCCCCc4ccncc4)cn3c(=O)c2c1` [Example 11, N-[5-(4-Pyridyl)pentyl]-2-(1-methylethyl)-11-oxo-11H-pyrido[2,1-b]quinazoline-8-carboxamide], the IC50 in data set [2] and in [3] was less than 10 µM each time.

In general, IC50 refers to the concentration that inhibits the measured activity by half. In general, LD50 refers to the dose at which mortality reaches 50%. Low values mean a more toxic substance, high ones a less toxic substance. Usually inhibition stands for the percentage by which the read-out fell short of the control. High values mean strong suppression, low ones little suppression.

The values above are taken from patent US4551460A, “Pyrido[2,1-b]quinazoline derivatives useful as agents for treatment of allergic conditions and vascular disorders involving thrombosis” (priority 1983, dated 1985).
